In the pKa sets of Baltruschat and Czodrowski (2020) one finds pKa data, which are given here for 133 compounds.

“And” between values parts separate entries of the source, which are not always exact repeats. Equal values may be shown once. Where a SMILES comes first, the peptide text is derived from it.

For the first series the following is noted: acidic group.
In turn, `C[N+](C)(O)c1ccccc1` yielded a pKa of 4.21.

Compound `O=[PH]([O-])C(NCc1ccccn1)c1ccccc1O` (stereo not drawn) gave a pKa of 12. The same measure, in the same setting: under `O=C(O)CCCl` stands 4.04; under `O=C(O)c1cccc(=O)cc1`, 3.2. `CN1CCC(=O)NC1=O` returned a pKa of 11.9. The same measure, in the same setting: the figure for `O=[N+]([O-])c1ccccc1/C=N/O` is 10.1; for `C[C@]12C[C@H](C(=O)O)OC(=O)[C@H]1CC[C@@]1(C)[C@@H]2[C@H]2CCC1(O)C(=O)O2` it is 3.5; for `NNC(=O)c1ccccc1` it is 12.4. Still for that read-out and setting: the figure for `O=C(O)CCc1ccc([N+](=O)[O-])cc1` is 4.54. `CC(=O)NS(=O)(=O)c1ccc(N)cc1`: the pKa is 5.35.

Turning to `O=C(Cc1ccccc1)c1cc[n+]([CH-]c2cccc([N+](=O)[O-])c2)cc1`, the pKa came to 11.6. Turning to `C=C(C)/C=C(\C)O`, the pKa stood at 10.4. On the same count and under the same terms, under `O=C(O)C12CCC(O)(CC1)CC2` stands 6.33; under `Oc1cccc2cccnc12`, 9.77. Turning to `C[C@H]([NH3+])CCC(=O)O`, the pKa turned out to be 4.13. Same read-out and setting: the figure for `C[N+]1(CCCCC(=O)O)CCCCC1` is 4.33; for `COC(=O)c1ccccc1O` it is 10.3. Compound `Cc1ccc(/C=C/C(=O)C(=O)O)cc1` gave a pKa of 1.96. Still for that read-out and setting: the figure for `Cc1c(C(=O)O)cccc1[N+](=O)[O-]` is 2.98; for `C=CC[NH+](CC=C)CCCNC(=O)/C=N/O` it is 8.14; for `C[Si](C)(C)C#CC(=O)O` it is 2.21.

As to `CO[n+]1ccccc1N`, the pKa worked out at 12.4. `O=C(O)Cn1cnnn1` gave a pKa of 2.27. Still for that read-out and setting: under `COc1nc(C)cc(O)[nH+]1` stands 1.6; under `Cc1cccc(C(=O)O)c1I`, 2.92; under `O=C(O)CC(=O)/C=N/O`, 3.5. Consider `CC(C)C[NH2+]CC(=O)O`, for which the pKa turned out to be 2.35. On the same count and under the same terms, the figure for `O/N=C/c1ccccn1` is 10.1; for `Cc1ccc(C[n+]2ccc(C(=O)Cc3ccccc3)cc2)cc1` it is 8.91. The compound `COc1cc(OC)c2c(c1Cl)O[C@]1(C(=O)CC(=O)C[C@@H]1C)C2=O` came in with a pKa of 4.49. On the same count and under the same terms, the figure for `Cc1cc(C(CC(=O)O)c2ccccc2)ccc1O` (stereo not drawn) is 4.67; for `CNS(=O)(=O)C(F)(F)F` it is 7.56; for `Cc1ccc(O)c(CN(C)C)c1` it is 11.2.

In turn, `O=C([O-])/C=C/C([O-])=C/C(=O)CC(=O)[O-]` showed a pKa of 10.5. Compound `CC[C@@H](C(=O)O)[C@@]1(O)C[C@H]2CC[C@@H]1C2` had a pKa of 4.26. Same read-out and setting: the figure for `O=[N+]([O-])c1ccccc1/C=N\O` is 10.7. The same measure, in the same setting: the figure for `NS(=O)(=O)c1nnc(Nc2ccccc2)s1` is 7.7. Still for that read-out and setting: the figure for `CN(C)c1cccc(/C(=N\O)C(F)(F)F)c1` is 9.3; for `Nc1ccc(O)cc1` it is 10.1.

`Oc1nc2nc[nH]c2c(O)[nH+]1` had a pKa of 1.2. Still for that read-out and setting: under `O=[Se](O)c1ccc(-c2ccccc2)cc1` stands 4.53. In turn, `CCOC(=O)C1CCCC1=O` (stereo not drawn) returned a pKa of 10.7.

Regarding `O=Cc1cccc(Cl)c1O`, the pKa is 6.61. With `Cc1ccccc1SCC(=O)O`, the pKa was 3.46.

In the case of `O=S(=O)(Nc1nccs1)c1ccccc1`, the pKa came to 5.73. `CC(C)(C)P(=O)(O)C(C)(C)C`: the pKa worked out at 4.24.

`CC(C)[C@H](C(=O)O)N1C[C@H](NC(=O)Cc2ccccc2)C1=O` had a pKa of 3.48. Same read-out and setting: the figure for `Oc1ccc(OCc2ccccc2)cc1` is 10.5.

`CC1=NS(=O)(=O)c2ncccc2N1` returned a pKa of 7.58. The same measure, in the same setting: the figure for `CC(=O)CCC(=O)O` is 4.63; for `O=C(O)CCBr` it is 3.86. For the compound `O=c1cc(O)c2ccccc2o1`, the pKa was found to be 4.1.

`CC(C)[NH2+]CCc1ccc(O)cc1` yielded a pKa of 9.59.

The compound `O=C(O)[C@@H]1CC[C@@H](C(=O)O)S1` had a pKa of 3.3. On the same count and under the same terms, the figure for `CNc1nnn[nH]1` is 6.06; for `Oc1c(Cl)cccc1Cl` it is 6.8. `CC(=O)c1ccc(NN=C(C#N)C#N)cc1` showed a pKa of 5.85. As for `CC(=O)C(C)C(C)(C)C(=O)O` (stereo not drawn), the pKa was determined as 5.79. On the same count and under the same terms, under `C[NH+](C)CCc1ccccc1O` stands 8.75. On the same count and under the same terms, the figure for `Cc1cc(C)c2cccc(O)c2n1` is 10.6; for `CC(C)(C)C(=O)CC(=O)C(C)(C)C` it is 11.8; for `Oc1onc(-c2ccccc2)c1Br` it is 2.3. Still for that read-out and setting: the figure for `CSc1ncnc2[nH]ncc12` is 9.65. Take `CC(=O)c1ccc(F)cc1`: the pKa turned out to be 18.5. In turn, `Cc1ccc(NC(=S)c2cccc(Br)c2)cc1` registered a pKa of 10.9. On the same count and under the same terms, the figure for `CCCCCCCC(=O)N[C@H]1C(=O)N2[C@H]1SC(C)(C)[C@H]2C(=O)O` is 2.66; for `O=C(O)c1ccc(Br)cc1` it is 3.99.

Still in this series, the particulars now being: basic group.
`CC(=O)N(C)c1ccncc1` displayed a pKa of 4.62. `O=[PH]([O-])C(NCc1ccccn1)c1ccccc1O` (stereo not drawn) returned a pKa of 8.08.

The compound `Cn1ncc2c(NCc3ccco3)ncnc21` yielded a pKa of 3.8. For the compound `CCCCN(CCCC)c1nnc(-c2ccccc2)cc1C`, the pKa is 4.88. Turning to `CCN(CC)CCO`, the pKa was 9.84. Same read-out and setting: the figure for `CC(C)c1ccncc1` is 6.02; for `O=C([O-])c1nc2cc(Cl)ccc2[nH]1` it is 4.3; for `CN(C)c1ncccn1` it is 3.96.

`CCN(C(C)C)C(C)C`: the pKa came out at 11.4.

Compound `NNC(=O)c1ccccc1` had a pKa of 3.02. `Nc1cccc2[nH]c(Cc3ccccc3)nc12`: the pKa stood at 8.6. Compound `C(=C\c1ccncc1)/c1ccccc1` showed a pKa of 5.97. `CC(=O)NS(=O)(=O)c1ccc(N)cc1`: the pKa turned out to be 1.58. On the same count and under the same terms, the figure for `OC[C@H](O)[C@H](O)[C@@H](O)[C@H](O)c1nc2ccccc2[nH]1` is 5.28; for `CN(C(=O)c1ccccc1)c1cccnc1` it is 3.66. Still for that read-out and setting: under `CCCCc1cccnn1` stands 3.49; under `Oc1cccc2cccnc12`, 5.02; under `Cc1ccc(N=C2C=CC(=N)C=C2)c(N)c1`, 4.2. On the same count and under the same terms, under `Cc1cc(C)n(Cc2cc(C)n(C)n2)n1` stands 3.39; under `CC(C)N1C2CCCC21` (stereo not drawn), 8.31; under `Cc1ccc(N)cc1-c1cc(N)ccc1C`, 5. As for `CCN(CC)CCNc1ccnc2ccccc12`, the pKa is 8.95. For `Cc1cc(C(c2ccc(N)cc2)c2ccc(N)cc2)ccc1N`, the pKa stood at 4.9.

The compound `Oc1ccccc1CN1CCCCC1` yielded a pKa of 8.6.

The compound `Nc1ncc2[nH]c[nH+]c2n1` returned a pKa of -0.28. `[O-]c1cccnc1` registered a pKa of 8.6. On to `CC(=O)OCC1CC2CCN1CC2` (stereo not drawn), for which the pKa turned out to be 9.88. Same read-out and setting: under `C[NH+](C)CCCCN1C=Nc2cccc3cccc1c23` stands 5.3. On the same count and under the same terms, under `Cc1ccc(N)nc1` stands 7.22; under `CC(C)C[C@H](N)C(=O)N[C@@H](Cc1c[nH]cn1)C(=O)[O-]` (H-Leu-His-OH), 7.78. `NCc1ccc(C=O)o1`: the pKa was found to be 8.1. The same measure, in the same setting: under `[S-]c1ccnc([S-])[nH+]1` stands 6.46; under `Nc1ccc(-c2cnc(-c3ccccc3)o2)cc1`, 3.68. Compound `CCN(CC)CCNc1cc(C)nc(N)n1` showed a pKa of 9.55. Still for that read-out and setting: under `C=CCN(CC(C)O)CC(C)O` (stereo not drawn) stands 8.2. For the compound `O/N=C/c1ccccn1`, the pKa came out at 3.4. On the same count and under the same terms, under `CCN(CC)CCNc1nc(N)nc(C)c1C` stands 9.7. `CCC(O)CN(C)CC(O)CC` (stereo not drawn) had a pKa of 9. The same measure, in the same setting: under `Cc1cc(Cn2[nH+]c(C)cc2C)n[nH]1` stands 1.2; under `CNc1ncnc2c1cnn2C`, 4.24. Regarding `CC(C=C(c1cccs1)c1cccs1)N1CCCCC1C` (stereo not drawn), the pKa worked out at 7.46.

`NC(=O)/C=C(\O)c1cccnc1`: the pKa was 8.01.

In turn, `CN(C)CCCCCNC(=O)/C=N/[O-]` displayed a pKa of 10.3. In turn, `OC[C@H]1CCCN2CCCC[C@@H]12` had a pKa of 10.2. `C=CCN(CC=C)CCCN(CC=C)CC=C` showed a pKa of 8.8.

The compound `COc1ccc(N)cc1CN` came in with a pKa of 9.77. On the same count and under the same terms, the figure for `Cc1ccc(O)c(CN(C)C)c1` is 8.68. Turning to `C[C@H]1[C@@H]([NH3+])[C@@H](C)[C@@H](N)[C@@H](C)[C@H]1[NH3+]`, the pKa stood at 5.15. Take `C=C(C)C(=O)OCCCN`: the pKa is 9.62.

Turning to `Nc1ccc(O)cc1`, the pKa is 5.54. Same read-out and setting: the figure for `CCCCCNc1ccccc1` is 5.2; for `CCN(CC)CCCC(C)Nc1cc(C)nc2cc(Cl)ccc12` (stereo not drawn) it is 10.2. Still for that read-out and setting: under `O=C1C[C@H]2OCC=C3CN4CC[C@@]56c7ccccc7N1[C@@H]5[C@@H]2[C@@H]3C[C@@H]46` stands 8.18; under `NCCc1cnc[nH]1`, 9.4; under `CN(C)CC[N-]S(=O)(=O)c1cccc2c(N(C)C)cccc12`, 10.9. The same measure, in the same setting: under `CN(C)CCN(C)CCN(C)C` stands 9.55 and 9.4; under `NCCCCCCCCC(=O)[O-]`, 11. The compound `Cn1c2c(s/c1=N\N)CCCC2` registered a pKa of 8.2.

As for `CCCSCCN`, the pKa is 9.43. `Cc1ccc(C(C)C)c(OCCN(C)C)c1` returned a pKa of 8.66. The same measure, in the same setting: the figure for `CCNCc1ccccc1` is 9.75; for `[O-]c1c(Cl)cc(Cl)cc1CN1CCCCC1` it is 11.1; for `CCCNCC[NH2+]CCC` it is 7.53. Still for that read-out and setting: under `COc1ccc([N+](=O)[O-])c(CN)c1` stands 8.72; under `CC(=O)CCN(C)C`, 8.95. Same read-out and setting: the figure for `Nc1cc[n+]([O-])cc1` is 3.61. The compound `Cc1ccc(NCO)cc1` returned a pKa of 3.42. For `CCCCCCCCCCCCCCN(CCO)CC(C)O` (stereo not drawn), the pKa came out at 6.3. With `CC(=O)c1ccc(NN=C(C#N)C#N)cc1`, the pKa is -0.77.

With `CNC(=O)/C=C(\c1ccc2nc(N)n(C(C)C)c2c1)c1cccc(F)c1F`, the pKa is 6.69. As for `O=C(Cc1ccccc1Nc1c(Cl)cccc1Cl)OCCCN1CCOCC1`, the pKa worked out at 7.99. Compound `CC(=O)N(N=C(C)C)C1CCN(C)CC1` yielded a pKa of 8.6. The same measure, in the same setting: the figure for `Cc1cc(C)c2cccc(O)c2n1` is 6.2; for `CSc1ncnc2[nH]ncc12` it is 1. Turning to `c1ccc(Cc2cc(-c3ccccc3)nnc2NCCN2CCOCC2)cc1`, the pKa stood at 6.95. Still for that read-out and setting: the figure for `Nc1cccc2cccnc12` is 4.01.

Usually pKa stands for the pH at which an ionisable group is half protonated. Read a low pKa as a group that gives up its proton readily.
